The source of these data is patent publication US20230064978A1, “CYCLIC PEPTIDE RECEPTOR LANTHIONINE SYNTHETASE C-LIKE PROTEIN (LANCL) AND USES THEREOF” (LATERAL IP PTY LTD, priority 2019, published 2023).

Entries after “also recorded” stand apart in the source; their conditions may differ. Bridges are numbered along the chain shown (N, C = ends). Where no end group is shown, it is not given here.

For test [1], the system named is tissue homogenates of nerve from neuropathic animals. Description: PAL cross-linking to nerve tissue homogenates and gel separation. Format: binding. The source says:
Using a ligand driven approach, the present inventors utilized the photo-activatable cross-linking PAL from Evotec A.G. (Photo-Activated Labelling) technology that derivatizes the active cyclic peptides to allow UV-induced cross-linking to binding targets (described herein as peptide/SEQ ID NO:X-PAL). This allows subsequent detection in cells, gels of tissue isolates or in pull-down of the peptide/target complex for sequencing by mass spectroscopy (PALMS).
LAT9991-PAL was cross-linked to tissue homogenates of nerve from neuropathic animals.

Another test has as its system spinal cord slice model. Description: Spinal cord slice model. To be noted: data not shown.
Test [2] has as its system Dorsal root ganglion (DRG) neurons. Description: Cell-binding fluorescence on cultured DRG neurons, paclitaxel neuropathy model. The settings on record: DRG neurons from paclitaxel-treated vs untreated mice; probe 5 μM (FIG. 1). Format: cell-based. Here is the method: The cell-binding fluorescence protocol can be briefly described as follows. […] Model of chemotherapy-induced peripheral neuropathy was generated using paclitaxel in female C57/B16 mice—[…] Paclitaxel or vehicle (10 ml/kg body weight) injected intravenously (i.v.) on day 1, day 3 and day 5. Mechanical allodynia was confirmed using von Frey (VF) filaments 9 days after starting vehicle or paclitaxel treatment (left and right paws). Each of the ten C57/B16 mice (vehicle control and paclitaxel treated) were euthanized by CO2 inhalation and individually dissected.
L5-L6 DRGs were rapidly dissected and placed in Petri dishes containing dissection medium. Meninges were removed.
Each DRG pool was successively: • incubated in dissociation buffer (0.5 mg/ml Dispase, 2.5 mg/ml collagenase, 6 mg/ml BSA, 10 mM HEPES) for 30 min at 37° C. under gentle agitation at 800 rounds/min; • washed; • triturated in culture medium and filtered on a 40 μm filter; • re-suspended in 1 ml culture medium supplemented with nerve growth factor (NGF) 250 ng/ml.
Dissociated cells from each pool were counted, seeded on Poly-D-Lysin- and Laminin-coated μ slides at the density of 4×10^4 cells/well and incubated at 37° C. 5% CO2. The medium was changed daily for 3 days. […]

The subject of the next test is NCI-H358 cells. Description: Confocal imaging of LAT9991F-PAL binding and LANCL1 co-localization, with siRNA knockdown and competitors, in NCI-H358 cells. Format: cell-based. The settings on record: SiLANCL1 NCI-H358 cells; competitor 25 μM. Here is the method:
A photoactivatable analog of LAT8881 (LAT9991F (SEQ ID NO:13)-PAL), was used to conduct the experiments. A549 or NCI-H358 cells were treated with LAT9991F-PAL at 2.5 μM during 30 minutes. Fluorescent signal was recorded after that LAT9991F-PAL was immobilized on its target(s) site by UV-crosslinking and the LAT9991F-PAL-target complexes were labeled with the green-fluorescent Alexa Fluor 488 alkyne dye by click-chemistry. Control cells were treated with the vehicle, dimethyl sulfoxide (DMSO), and with LAT9991F-PAL in combination with a large excess of the parent drug LAT8881 or other competitors, GSH, NSC61610 or ABA to evaluate, respectively, the non-specific fluorescent background and the specificity of the staining. For colocalization experiments, subsequently, immunofluorescence staining with an anti-LANCL1 or LANCL2 antibodies and an Alexa 568 (red) conjugated secondary antibody was performed. Images stacks of cells labeled with probes were collected and evaluated for the degree of colocalization of LAT9991F-PAL-target complexes and LANCL1 or LANCL2 using either the Measure Colocalization plugin in Metamorph or the JACoP plugin in ImageJ).
A549 or NCI-H358 cells (ATCC CCL-185 and ATCC CRL-5807, respectively) were cultured in appropriate medium containing 10% heat-inactivated FBS (Dutscher, #SV30160-036), 1% penicillin/streptomycin (Gibco, #15140-122) and maintained in a humidified 37° C. incubator with 5% CO2.
LAT9991F-PAL was dissolved in DMSO to make a 10 mM stock solution. Intermediate solutions at 25 μM and 2.5 μM were made in the culture medium from the 10 mM stock solutions of LAT8881 and LAT9991F-PAL, respectively. A two-fold dilution into PBS of each intermediate solution was used for cell treatment. A stock solution at 10 mM was prepared for the other competitors as GSH, NSC61610 and ABA. A final concentration at 25 μM was used for the assay.
ibidiTreat Polymer Coverslips (Ibidi, #80826) were coated with serum during 1 hour at 37° C., followed by Laminin (100 μg\ml) (incubation for 1 hour at 37° C.) for NCI-H358 cells.
A549 or NCI-H358 cells were seeded onto ibidiTreat Polymer Coverslips (Ibidi, #80826) at 2.5×10^5 cells/cm^2 in 200 μl of complete medium. After 24 hours, the medium was removed and cells were washed with PBS (Gibco, #10010049) and then pre-treated with the Taxol at 1 μM for 3 hours or with H2O2 25 μM for 2 hours. Cells were washed twice with PBS. Induced stress cells or control cells were then exposed to LAT9991F-PAL (2.5 μM) in PBS for 30 minutes, in the presence or absence of LAT8881 (25 μM), or the other compounds used as a competitor, and pre-incubated 10 minutes. After treatment, cells were washed with cold PBS and UV-irradiated (365 nm) in PBS for 20 min. After fixation with 4% paraformaldehyde and permeabilization (0.5% Triton/PBS) (Image-iT™ Fixation/Permeabilization Kit, ThermoFisher, #R37602), the bioorthogonal reaction with Alexa Fluor 488 Alkyne (1 μM) (ThermoFisher, #A10267) was performed at 25° C. using the Click-iT™ Cell Reaction Buffer Kit (ThermoFisher, #C10269) according to the manufacturer protocol. After click reaction, cells were washed twice with PBS, blocked with 3% BSA in PBS for 1 hour and stained with Hoechst 33342 dye (ThermoFisher, #H1399).
For colocalization experiments, cells were further incubated overnight at 4° C. with a mouse anti-LanCL1 antibody (Invitrogen, PAS-57-107) (dilution 1:1000) or LanCL2 (Atlas Antibodies HPA019711) (dilution 1:1000) in 3% BSA in PBS, washed twice with PBS, and then incubated respectively with a goat anti-mouse […] (Molecular Probes, #A21467) (dilution 1:800) for 1 h in 3% BSA in PBS. After three further washing steps with PBS, cells were embedded in Ibidi Mounting Medium (ibidi, #50001). The specimens were kept at 4° C. in the dark until analysis.
Images were acquired on an Axiovert200M (Zeiss) microscope using a CSU-W1 Yokogawa confocal unit.

As for “LAT9991-PAL: cyclic peptide of SEQ ID NO:12 (LAT9991) conjugated to the PAL (Photo-Activated Labelling) grouping (CRSVEGSCG; disulfide 1-8 (inferred); also: PAL group on N-terminal Cys-Arg part)”, the “Cross-linking of PAL probe to tissue homogenates of nerve from neuropathic animals” value in test [1] is recorded as “cross-linked; also recorded: shown to cross-link”. Further, the “Molecular weight ranges of targets stained after gel separation” value in test [1] (FIG. 3 legend, LAT9991-PAL 5 μM) is 12-15 kDa, 37 kDa and 40-50 kDa; in test [1] (PAL probe cross-linked to nerve homogenates), “˜12-15 kD, ˜37 kD and ˜50 kD”. In addition, in the test with spinal cord slice model, the “Activity on the spinal cord slice model” value is given as “fully active”. For the same substance, the “Binding of PAL probe to DRG neurons” value in test [2] is “can be seen in DRG neurons from mice treated with paclitaxel (neuropathic pain model), but not in control untreated mice; also recorded: only to neurons from treated and neuropathic animals”.

In the case of “YLRIVQCRSVEGSCGF [LAT8881, a cyclic peptide fragment of human growth hormone]”, the “Competition of LAT9991F-PAL binding by excess competitor” value with NCI-H358 cells is reported as “partially competed off”.
